Data reported in patent US5726325A, “Tricyclic compounds” (Kyowa Hakko Kogyo Co., Ltd., priority 1995, dated 1998).

Assays:
[1] = system: detrusor muscle; experiment: Test Example 1: relaxation of guinea pig bladder strips contracted with 50 mM KCl; type: cell-based, guinea pig (male albino Hartley); conditions: Cavia porcellus; contraction induced by 50 mM KCl; concentration decreasing detrusor contraction by 50%
From the text: (§1) The activity of Compound (I) as a smooth muscle relaxant which is useful as a therapeutic agent for urinary incontinence can be observed, for example, using the following tests. In the following Test Examples 1 and 2, "IC50 " means the concentration of a test compound which induces the decrease in the contraction of detrusor muscle by 50%.
(§2) Male albino Hartley guinea pigs (350-550 g) were used as test animals. Each animal was exsanguinated to death under pentobarbital sodium anesthesia. The lower abdominal cavity was opened and its bladder was positioned. The connective tissue and the fat tissue around the bladder were removed, and the bladder was cleaned. After two pelvic nerves on the surface of the abdominal side of the bladder were dissected, the bladder was taken out on the entrance of ureter. The bladder was washed with a Krebs-Henseleit buffer [composition (mM): NaCl 118, KCl 4.7, MgSO4 1.2, KH2 PO4 1.2, CaCl2 2.5, NaHCO3 25, and D-glucose 11.1], and then put on a gauze patch soaked in the buffer in a Petri dish. The dome and the trigone of the bladder were dissected and discarded. The back of the bladder was cut vertically in the middle with scissors, and the bladder was put flat on the gauze patch. The dome tip and the side of the trigone of the bladder were dissected and discarded, and the mucosa of the bladder was removed. The back of the bladder was cut vertically to get 6 strips which are ca. 2.0 mm wide and ca. 10 mm long.
(§3) One end of each strip was fixed on a plastic supporter rod, and the other end was fixed on a clip connected to a suture thread. The supporter was fixed in 20 ml of an organ bath and the suture thread connected to the clip was fixed on a force-displacement transducer (NIHON KODEN TB-611T). The tissue was suspended in a Krebs-Henseleit buffer, and the bath solution was warmed to 37° C. and bubbled with a gas mixture of 5% CO2 and 95% O2. The pH of the solution was adjusted to about 7.4. The transducer was connected to a polygraph (NIHON KODEN AP-621G), and the change of tension was recorded on a recorder (YOKOGAWA type 3066). The polygraph was graduated by 0.5 g/cm.
After the tissue was incubated in the buffer for 15 minutes without preloading, tension was added thereto for about one hour. The preloading tension added was 1.5 g and it was relaxed to about 1 g. The tissue was washed at intervals of 15 minutes and the tension was adjusted to 1.5 g just before washing. The tension of the tissue was adjusted to be a steady state at 1 g. After this equilibrium time, 50 mM KCl (the whole content in the bath) was added, and the tissue was washed 10 minutes later. KCl was added to the tissue at intervals of 30 minutes, followed by washing 10 minutes later, and KCl was applied repeatedly until the developed tension induced by KCl becomes constant. When the tissue was confirmed to contract constantly by the application of KCl and relax to the steady state after washing, 50 mM KCl was applied again. After the tissue reached the steady state and the base line was obtained, a test compound was applied by the cumulative method (half-logarithmic incremence). The contact time at each concentration was 30 minutes. The activity of the compound was expressed as the maximum relaxation rate (%) of the tension induced by the agonist.

[2] = system: detrusor muscle; experiment: Test Example 2: relaxation of guinea pig bladder strips, rhythmical contraction induced by 15 mM KCl; type: cell-based, guinea pig (male albino Hartley); conditions: Cavia porcellus, concentration decreasing detrusor contraction by 50%
From the text: as §1, §2, §3
The effect of a smooth muscle relaxant varies with the concentration of KCl based on the difference of an action mechanism. In the following Test Example, KCl was used at a concentration different from that in Test Example 1.
A sample of the excised bladder was prepared in the same manner as in Test Example 1, and the tension of the preparation was measured. After the tension of the tissue was adjusted to be a steady state at 1 g, 15 mM KCl was applied. After the rhythmical contraction was confirmed to appear by KCl, the tissue was washed. Then, 15 mM KCl was applied again. After the rhythmical contraction took place constantly and the tissue reached the steady state, a test compound was applied by the cumulative method (half-logarithmic incremence). The contact time at each concentration was 30 minutes. The activity of the compound was expressed as the maximum relaxation rate (%) of the tension induced by the agonist.

[3] = system: bladder; experiment: Test Example 4: micturition contraction interval in rats under partial restraint, oral; type: in vivo, rat (male SD strain); conditions: Rattus norvegicus, 1 mg/kg oral, pre-administration = 100
From the text: As a control compound, cromakalim was used.

| SMILES | IC50 [1] | IC50 [2] | further results |
| --- | --- | --- | --- |
| CC(O)(C(=O)Nc1cccc2c1C(=O)c1ccccc1CS2)C(F)(F)F (stereo not shown) [Compound 40, 1-(3,3,3-Trifluoro-2-hydroxy-2-methylpropanoylamino)-6,11-dihydrodibenzo[b,e]thiepin-11-one] | 1.5 µM | 3.5 µM |  |
| CC(O)(C(=O)Nc1ccc2c(=O)c3sccc3ccc2c1)C(F)(F)F (stereo not shown) [Compound 65, 7-(3,3,3-Trifluoro-2-hydroxy-2-methylpropanoylamino)-10H-benzo[5,6]cyclohepta[1,2-b]thiophen-10-one] | 4.6 µM | 2.3 µM |  |
| Cc1ccc(NC(=O)C(C)(O)C(F)(F)F)c2c1OCc1ccccc1C2=O (stereo not shown) [Compound 22] | 4.2 µM | > 10 µM |  |
| CC(O)(C(=O)Nc1ccc2c(c1)OCc1c(F)cccc1C2=O)C(F)(F)F (stereo not shown) [Compound 21, 7-Fluoro-3-(3,3,3-trifluoro-2-hydroxy-2-methylpropanoylamino)-6,11-dihydrodibenz[b,e]oxepin-11-one] | 4.3 µM | > 10 µM |  |
| CC(O)(C(=O)Nc1cccc2ccc3ccccc3c(=O)c12)C(F)(F)F (stereo not shown) [Compound 60, 4-(3,3,3-Trifluoro-2-hydroxy-2-methylpropanoylamino)-5H-dibenzo[a,d]cyclohepten-5-one] | > 10 µM | 4.1 µM |  |
| CC(O)(C(=O)Nc1ccc2c(c1)C(=O)c1ccccc1CO2)C(F)(F)F (stereo not shown) [Compound 3, 2-(3,3,3-Trifluoro-2-hydroxy-2-methylpropanoylamino)-6,11-dihydrodibenz[b,e]oxepin-11-one] | 2.2 µM | 1.8 µM |  |
| CC(O)(C(=O)Nc1ccc2c(c1)SCc1occc1C2=O)C(F)(F)F (stereo not shown) [Compound 43, 7-(3,3,3-Trifluoro-2-hydroxy-2-methylpropanoylamino)-4,10-dihydrofuro[2,3-c][1]benzothiepin-4-one] | 3.5 µM | 2.1 µM |  |
| COc1ccc(NC(=O)C(C)(O)C(F)(F)F)c2c1OCc1ccsc1C2=O (stereo not shown) [Compound 27, 6-Methoxy-9-(3,3,3-trifluoro-2-hydroxy-2-methylpropanoylamino)-4,10-dihydrothieno[3,2-c][1]-benzoxepin-10-one] | 4.8 µM | > 10 µM |  |
| C[C@](O)(C(=O)Nc1ccc2c(c1)C(=O)c1sccc1CO2)C(F)(F)F [Compound 39, (S)-8-(3,3,3-Trifluoro-2-hydroxy-2-methylpropanoylamino)-4,10-dihydrothieno[3,2-c][1]benzoxepin-10-one] | > 10 µM | 2.6 µM |  |
| CC(O)(C(=O)Nc1cc2c(cc1Cl)-c1ccccc1C2=O)C(F)(F)F (stereo not shown) [Compound 11, 3-Chloro-2-(3,3,3-trifluoro-2-hydroxy-2-methyl-propanoylamino)fluoren-9-one] | 2 µM | 2.2 µM |  |
| CC(O)(C(=O)Nc1cccc2c1C(=O)c1ccsc1C[S+]2[O-])C(F)(F)F (stereo not shown) [Compound 50, 9-Oxo-5-(3,3,3-trifluoro-2-hydroxy-2-methylpropanoylamino)-4,10-dihydrothieno[2,3-c][1]benzothiepin-4-one] |  | 6.1 µM |  |
| CC(O)(C(=O)Nc1ccc2c(c1)SCc1ccsc1C2=O)C(F)(F)F (stereo not shown) [Compound 45, 7-(3,3,3-Trifluoro-2-hydroxy-2-methylpropanoylamino)-4,10-dihydrothieno[3,2-c][1]benzothiepin-10-one] | > 10 µM | 2.5 µM |  |
| CC(O)(C(=O)Nc1ccc2c(c1)SCc1sccc1C2=O)C(F)(F)F (stereo not shown) [Compound 47, 7-(3,3,3-Trifluoro-2-hydroxy-2-methylpropanoylamino)-4,10-dihydrothieno[2,3-c][1]benzothiepin-4-one] |  | 6.1 µM |  |
| CC(O)(C(=O)Nc1ccc2ccc3ccccc3c(=O)c2c1)C(F)(F)F (stereo not shown) [Compound 61, 3-(3,3,3-Trifluoro-2-hydroxy-2-methylpropanoylamino)-5H-dibenzo[a,d]cyclohepten-5-one] | 3.2 µM | 2.3 µM |  |
| CC1(C)Oc2ccc(C#N)cc2C(N2CCCC2=O)C1O (stereo not shown) [Cromakalim, cromakalim, reference compound] |  |  | response vs control in vivo at 1 mg/kg ([3]; 1 hr): 128%; response vs control in vivo at 1 mg/kg ([3]; 2 hr): 133%; response vs control in vivo at 1 mg/kg ([3]; 3 hr): 142%; response vs control in vivo at 1 mg/kg ([3]; 4 hr): 133%; response vs control in vivo at 1 mg/kg ([3]; 5 hr): 133% |
| CC(O)(C(=O)Nc1cccc2c1C(=O)c1ccccc1-2)C(F)(F)F (stereo not shown) [Compound 4, 1-(3,3,3-Trifluoro-2-hydroxy-2-methylpropanoylamino)fluoren-9-one] | 2.6 µM | 8.4 µM |  |
| CC(O)(C(=O)Nc1ccc2c(c1)CCc1ccccc1C2=O)C(F)(F)F (stereo not shown) [Compound 54, 2-(3,3,3-Trifluoro-2-hydroxy-2-methylpropanoylamino)-10,11-dihydro-5H-dibenzo[a,d]cyclohepten-5-one] | 3.8 µM | > 10 µM |  |
| CC(O)(C(=O)Nc1ccc2c(c1)[S+]([O-])Cc1sccc1C2=O)C(F)(F)F (stereo not shown) [Compound 51, 9-Oxo-7-(3,3,3-trifluoro-2-hydroxy-2-methylpropanoylamino)-4,10-dihydrothieno[2,3-c][1]benzothiepin-4-one] |  | 5.7 µM |  |
| CC(O)(C(=O)Nc1cccc2ccc3ccoc3c(=O)c12)C(F)(F)F (stereo not shown) [Compound 67, 9-(3,3,3-Trifluoro-2-hydroxy-2-methylpropanoylamino)-10H-benzo[5,6]cyclohepta[1,2-b]furan-10-one] | 6.9 µM | 3.8 µM |  |
| CC(O)(C(=O)Nc1cccc2ccc3sccc3c(=O)c12)C(F)(F)F (stereo not shown) [Compound 66, 5-(3,3,3-Trifluoro-2-hydroxy-2-methylpropanoylamino)-4H-benzo[4,5]cyclohepta[1,2-b]thiophen-4-one] | 1.4 µM | 2.1 µM |  |
| CC(O)(C(=O)Nc1ccc2c(=O)c3occc3ccc2c1)C(F)(F)F (stereo not shown) [Compound 68, 7-(3,3,3-Trifluoro-2-hydroxy-2-methylpropanoylamino)-10H-benzo[5,6]cyclohepta[1,2-b]furan-10-one] | > 10 µM | 3.5 µM |  |
| COc1ccc(NC(=O)C(C)(O)C(F)(F)F)c2c1OCc1ccccc1C2=O (stereo not shown) [Compound 23] | > 10 µM | 7.8 µM |  |
| CC(O)(C(=O)Nc1ccc2c(c1)SCc1ccccc1C2=O)C(F)(F)F (stereo not shown) [Compound 41, 3-(3,3,3-Trifluoro-2-hydroxy-2-methylpropanoylamino)-6,11-dihydrodibenzo[b,e]thiepin-11-one] | 2.1 µM | 1.6 µM |  |
| CC(O)(C(=O)Nc1ccc2c(c1)-c1ccccc1C2=O)C(F)(F)F (stereo not shown) [Compound 6, 3-(3,3,3-Trifluoro-2-hydroxy-2-methylpropanoylamino)fluoren-9-one] | 6.1 µM | 11.2 µM |  |
| CC(O)(C(=O)Nc1cc2c(cc1Br)-c1ccccc1C2=O)C(F)(F)F (stereo not shown) [Compound 12, 3-Bromo-2-(3,3,3-trifluoro-2-hydroxy-2-methylpropanoylamino)fluoren-9-one] | 3.8 µM | 3.2 µM |  |
| CC(O)(C(=O)Nc1ccc2c(c1)[S+]([O-])Cc1ccccc1C2=O)C(F)(F)F (stereo not shown) [Compound 49, 5-Oxo-3-(3,3,3-trifluoro-2-hydroxy-2-methylpropanoylamino)-6,11-dihydrodibenzo[b,e]thiepin-11-one] | 7.8 µM | 4.1 µM |  |
